Test: Disk Retention Assay (DRA) of CPC bioavailability in mouthrinse formulations
Assay type: in vitro ADME
Conditions: mouthrinse formulation
From the text: In evaluating bioavailability and biological activity of quaternary ammonium antimicrobials in mouthwash formulations, an in vitro Disk Retention Assay (DRA) can be used to estimate drug bioavailability as well as an ex vivo Plaque Glycolysis and Regrowth Model (PGRM) to assess biological activity (S. J. Hunter-Rinderle, et al., “Evaluation of Cetylpyridinium Chloride-Containing Mouthwashes Using In Vitro Disk Retention and Ex Vivo Plaque Glycolysis Methods,” J. Clin. Den., 1997, 8:107-113). These assays are recommended for use in the proposed OTC monograph (Federal Register Vol. 68, No. 103 Part 356, “Oral Health Care Drug Products For Over-The-Counter Human Use; Antigingivitis/Antiplaque Drug Products; Establishment of a Monograph: Proposed Rules”).
This method is designed as a performance assay to analyze mouthrinse formulations containing from about 0.03% to about 0.1% CPC to quantitatively determine the “free” (“unbound”) or “bioavailable” level of CPC needed for clinical efficacy. The DRA assay measures the amount of CPC “binding” to standardized cellulose filter disks during filtration of an undiluted mouthrinse sample. The “bioavailable” CPC binds to the hydroxyl groups on the cellulose fiber during filtration while CPC, which has been rendered “non-bioavailable” (or “bound”)” through interactions with mouthrinse components, simply passes through the filter paper, i.e., the positive charge on the compound is no longer available for binding to the negatively charged cellulose disks. In this way, the DRA test provides an estimate of the amount of CPC available for binding to bacteria and mucosal surfaces during use of the mouthrinse. DRA measurements of CPC availability have been positively correlated to the results of in vitro microbiological assays and in vivo germ kill tests. Historically, cellulose fibers have been used in other applications to similarly monitor biological activity of drug actives (“Dairy Products” in Official Methods of Analysis of the Association of […] Analytical Chemists. 13th ed., 1980, Chapter 16:256).
“Bioavailable” CPC is the amount of CPC bound to or adsorbed to cellulose disks. This is determined by measuring the differences in CPC concentration in the mouthrinse before and after exposure to standardized cellulose disks. The method has been validated and shown to perform with acceptable accuracy, precision, and selectivity. A more detailed description of the test is provided below.
For example, a formulation comprising 0.05% CPC at 72% bioavailability would provide 360 ppm CPC. […] Determination of CPC bioavailability in a finished product is important to product performance as it readily defines the amount (concentration) of active available for deposition at the site of action. Because the positively charged (cationic) hydrophilic region is critical to antimicrobial activity, any formulation component that diminishes the activity of this cationic group or that competes with the group may inactivate the product.
Desirably, a formulation containing 0.05% CPC would have at least about 65% bioavailability to deliver at least about 324 ppm bioavailable CPC. A formulation containing a lower level of CPC such as 0.04% would need to have at least about 81% bioavailability to deliver the minimum required level of bioavailable CPC for efficacy.

## CCCCCCCCCCCCCCCC[n+]1ccccc1 [CPC, cetylpyridinium chloride]
0.0 % Poloxamer
  % bioavailable CPC: 94.24%
0.05 % Poloxamer
  % bioavailable CPC: 84.42%
0.1 % Poloxamer
  % bioavailable CPC: 61.14%
0.15 % Poloxamer
  % bioavailable CPC: 57.49%
0.2 % Poloxamer
  % bioavailable CPC: 52.96%
0.25 % Poloxamer
  % bioavailable CPC: 53.14%
0.5 % Poloxamer
  % bioavailable CPC: 42.63%
0.75 % Poloxamer
  % bioavailable CPC: 38.4%
1.00 % Poloxamer
  % bioavailable CPC: 35.09%
Level of 0.1% surfactant (Poloxamer) or higher
  bioavailability of CPC: unacceptable bioavailability
